From PubChem BioAssay (NCI)
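Method: 48-hour compound exposure of cells in 96-well plates, five concentrations, linear interpolation of endpoints. GI50 = concentration required for 50% inhibition of growth. Definition used: TGI = concentration required for complete inhibition of growth.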

Experiments:
Experiment in all cases: DTP human tumour cell line panel, 48 h
[1] = system: EKVX NSCLC
[2] = system: RXF 393 renal
[3] = system: MOLT-4 leukemia
[4] = system: OVCAR-8 ovarian
[5] = system: M14 melanoma
[6] = system: HCT-116 colon
[7] = system: SN12C renal
[8] = system: U251 CNS
[9] = system: COLO 205 colon
[10] = system: NCI-H23 lung
[11] = system: SNB-75 CNS
[12] = system: SK-OV-3 ovarian
[13] = system: T-47D breast
[14] = system: A549 NSCLC
[15] = system: DU-145 prostate
[16] = system: K-562 leukemia
[17] = system: SK-MEL-5 melanoma
[18] = system: SF-539 CNS
[19] = system: TK-10 renal
[20] = system: RPMI-8226 leukemia
[21] = system: HCC-2998 colon
[22] = system: CAKI-1 renal
[23] = system: HOP-62 NSCLC
[24] = system: SNB-19 CNS
[25] = system: IGROV1 ovarian
[26] = system: CCRF-CEM leukemia
[27] = system: HL-60(TB) leukemia
[28] = system: UACC-62 melanoma
[29] = system: HS 578T breast
[30] = system: SK-MEL-2 melanoma
[31] = system: MCF7 breast
[32] = system: OVCAR-3 ovarian
[33] = system: MALME-3M melanoma
[34] = system: UACC-257 melanoma
[35] = system: NCI-H460 lung
[36] = system: OVCAR-5 ovarian
[37] = system: SK-MEL-28 melanoma
[38] = system: UO-31 renal
[39] = system: 786-0 renal
[40] = system: LOX IMVI melanoma
[41] = system: MDA-MB-231 breast
[42] = system: A498 renal
[43] = system: MDA-MB-435
[44] = system: BT-549 breast
[45] = system: PC-3 prostate
[46] = system: NCI-H522 lung
[47] = system: HOP-92 NSCLC
[48] = system: NCI-H226 lung
[49] = system: ACHN renal
[50] = system: KM12 colon
[51] = system: SW-620 colon
[52] = system: HT29 colon
[53] = system: SF-268 CNS
[54] = system: OVCAR-4 ovarian
[55] = system: SF-295 CNS
[56] = system: NCI/ADR-RES ovarian
[57] = system: SR leukemia
[58] = system: HCT-15 colon

Molecule `COc1cnc2c(c1)C(=O)c1c-2n(CCCNCC2CC2)c(=O)c2cc(F)ccc12` has a GI50 [1] of 1.51 µM, a TGI [1] of 5.64 µM and a GI50 [2] of 0.855 µM. For the same molecule, the TGI [2] was 2.59 µM, the GI50 [3] was 0.0771 µM and the TGI [3] was 8.9 µM. The GI50 [4] was 0.801 µM, the TGI [4] was 3.83 µM and the GI50 [5] was 0.736 µM. The TGI [5] was 3.08 µM, the GI50 [6] was 0.284 µM and the TGI [6] was 1.4 µM. The GI50 [7] was 0.297 µM, the TGI [7] was 2.69 µM and the GI50 [8] was 0.346 µM. It also gave a TGI [8] of 2.36 µM, a GI50 [9] of 0.57 µM and a TGI [9] of 3.48 µM. The GI50 [10] was 0.577 µM, the TGI [10] was 1.95 µM and the GI50 [11] was 0.48 µM. For the same molecule, the TGI [11] was 3.3 µM, the GI50 [12] was 0.939 µM and the TGI [12] was 2.58 µM. For the same molecule, the GI50 [13] was 0.488 µM, the TGI [13] was 3.1 µM and the GI50 [14] was 0.262 µM. The TGI [14] was 1.55 µM, the GI50 [15] was 0.475 µM and the TGI [15] was 2.44 µM. For the same molecule, the GI50 [16] was 0.229 µM, the TGI [16] was 14.5 µM and the GI50 [17] was 1.14 µM. For the same molecule, the TGI [17] was 2.65 µM, the GI50 [18] was 0.581 µM and the TGI [18] was 1.92 µM. The GI50 [19] was 1.56 µM, the TGI [19] was 4.66 µM and the GI50 [20] was 0.474 µM. It also gave a TGI [20] of 2.87 µM, a GI50 [21] of 0.715 µM and a TGI [21] of 2.58 µM. The GI50 [22] was 0.216 µM, the TGI [22] was 1.83 µM and the GI50 [23] was 0.38 µM. The TGI [23] was 2.15 µM, the GI50 [24] was 0.453 µM and the TGI [24] was 3.89 µM. It also gave a GI50 [25] of 0.641 µM, a TGI [25] of 4.33 µM and a GI50 [26] of 0.19 µM. For the same molecule, the TGI [26] was 4.61 µM, the GI50 [27] was 0.199 µM and the TGI [27] was 1.68 µM. The GI50 [28] was 0.561 µM, the TGI [28] was 2.26 µM and the GI50 [29] was 2.49 µM. It also gave a TGI [29] of 13.9 µM, a GI50 [30] of 3.68 µM and a TGI [30] of 8.4 µM. It also gave a GI50 [31] of 0.0766 µM, a TGI [31] of 1.35 µM and a GI50 [32] of 1.11 µM. The TGI [32] was 3.8 µM, the GI50 [33] was 1.03 µM and the TGI [33] was 3.15 µM. For the same molecule, the GI50 [34] was 1.78 µM, the TGI [34] was 5.24 µM and the GI50 [35] was 0.104 µM. The TGI [35] was 0.8 µM, the GI50 [36] was 1.02 µM and the TGI [36] was 3.07 µM. For the same molecule, the GI50 [37] was 1.82 µM, the TGI [37] was 4.57 µM and the GI50 [38] was 0.304 µM. It also gave a TGI [38] of 1.59 µM, a GI50 [39] of 0.386 µM and a TGI [39] of 1.38 µM. The GI50 [40] was 0.206 µM, the TGI [40] was 0.923 µM and the GI50 [41] was 0.943 µM. For the same molecule, the TGI [41] was 3.44 µM, the GI50 [42] was 0.969 µM and the TGI [42] was 4.11 µM. It also gave a GI50 [43] of 1.21 µM, a TGI [43] of 3.98 µM and a GI50 [44] of 1.11 µM. It also gave a TGI [44] of 3.88 µM, a GI50 [45] of 0.76 µM and a TGI [45] of 4.93 µM. For the same molecule, the GI50 [46] was 0.275 µM, the TGI [46] was 1.74 µM and the GI50 [47] was 1.75 µM. It also gave a TGI [47] of 7.36 µM, a GI50 [48] of 0.751 µM and a TGI [48] of 2.02 µM. It also gave a GI50 [49] of 0.191 µM, a TGI [49] of 0.717 µM and a GI50 [50] of 1.4 µM. It also gave a TGI [50] of 5.73 µM, a GI50 [51] of 0.227 µM and a TGI [51] of 1.86 µM. For the same molecule, the GI50 [52] was 0.495 µM, the TGI [52] was 2.1 µM and the GI50 [53] was 1.06 µM. The TGI [53] was 8 µM, the GI50 [54] was 1.59 µM and the TGI [54] was 3.67 µM. The GI50 [55] was 0.295 µM, the TGI [55] was 1.68 µM and the GI50 [56] was 0.609 µM. The TGI [56] was 3.52 µM, the GI50 [57] was 0.117 µM and the TGI [57] was 1.79 µM. For the same molecule, the GI50 [58] was 0.402 µM and the TGI [58] was 1.81 µM.
